In patent US7964593B2, “Indolone-acetamide derivatives, processes for preparing them and their uses” (UCB Pharma, S.A., priority 2003, dated 2011):

Columns and labels:
[1] = compared with levetiracetam, literature statement; cited from earlier work

| SMILES | melting point | activity in the treatment of epilepsy [1] |
| --- | --- | --- |
| C[C@H](C(N)=O)N1C(=O)Cc2cc(Cl)ccc21 (single isomer, unassigned) [Compound 33] | 171 to 172 °C | – |
| C[C@@H](C(N)=O)N1C(=O)Cc2cc(Cl)ccc21 (single isomer, unassigned) [Compound 34] | 171 to 172 °C | – |
| CC[C@H](C(N)=O)N1CCCC1=O [(R)-α-ethyl-2-oxo-1-pyrrolidine acetamide] | – | completely lacks activity |
